Measurements as given in EP0187355A1, “Process for preparing beta-lactam antibiotics” (E.R. Squibb & Sons, Inc., priority 1981, dated 1982).
Where a name gives a salt, the structure may show the parent alone.

What was measured:
Experiment in all cases: MIC, agar dilution
Type in all cases: cell-based
Micrococcus luteus, 2495 = details: Micrococcus luteus, 2495, 18 h, K-10 agar, 10^4 CFU, 37°C, read-out: M.I.C.
Protocol: (§1) The following methodology is used to determine the minimum inhibitory concentration (hereinafter referred to as MIC) of the […] of this invention.
(§2) The test organisms are grown in approximately 15-20 ml of Antibiotic Assay broth (Difco) by inoculating (in tubes) the broth with a loopful of the organism from a BHI (Difco) agar slant. The inoculated tubes are incubated at 37°C for 18 to 20 hours. These cultures are assumed to contain 10^9 colony forming units (hereinafter CFU) per milliliter. The cultures are diluted 1:100 to give a final inoculum level of 10^4 CFU; dilutions are made with K-10 broth^*.
(§3) The compounds are dissolved in the appropriate diluent at a concentration of 1000 µg/ml. Twofold dilutions are made in K-10 broth resulting in a range from 1000 µg/ml to 0.5 µg/ml. 1.5 ml of each dilution is placed into individual square petri dishes to which 13.5 ml of K-10 agar^** is added. The final drug concentration in the agar ranges from 100 µg/ml to 0.05 µg/ml. Organism growth control plates containing agar only are prepared and inoculated before and after the test plates. The organisms are applied to the agar surface of each plate with the Denley Multipoint Inoculator (which delivers approximately 0.001 ml of each organism) resulting in a final inoculum level of 10^4 CFU on the agar surface.
(§4) The MIC is the lowest concentration of compound inhibiting growth of the organism.
(§5) The number following each organism refers to the number of the organism in the collection of E. R. Squibb & Sons,.Inc., Princeton, New Jersey. […] The symbol "N.T." means not tested.

[1] = tested on: Enterobacter cloacae, 8236; details: Enterobacter cloacae, 8236, 18 h, K-10 agar, 10^4 CFU, 37°C
Protocol: as §1, §2, §3, §4, §5

[2] = tested on: Streptococcus agalactiae, 9287; details: Streptococcus agalactiae, 9287, 18 h, K-10 agar, 10^4 CFU, 37°C, read-out: M.I.C.
Protocol: as §1, §2, §3, §4, §5

Escherichia coli, 10857 = details: Escherichia coli, 10857, 18 h, K-10 agar, 10^4 CFU, 37°C
Protocol: as §1, §2, §3
(§6) The plates are incubated at 37 °C for 18 hours and the MIC's are determined. The MIC is the lowest concentration of compound inhibiting growth of the organism.
as §5, with “The tables that follow are tabulated results obtained when the B-lactams of this invention are tested against various organisms. The number” for “The number”

[3] = tested on: Staphylococcus aureus, 10165; details: Staphylococcus aureus, 10165; K-10 agar, 10^4 CFU, 37°C, 18 hours; read-out: M.I.C.
Protocol: as §1, §2, §3, §6
as §5, with “The tables that follow are tabulated results obtained when the B-lactams of this invention are tested against various organisms. The number” for “The number”

[4] = tested on: Acinetobacter calcoaceticus, 8333; details: Acinetobacter calcoaceticus, 8333, 18 h, K-10 agar, 10^4 CFU, 37°C, read-out: M.I.C.
Protocol: as §1, §2, §3, §6
as §5, with “The tables that follow are tabulated results obtained when the B-lactams of this invention are tested against various organisms. The number” for “The number”

Escherichia coli, 10896 = details: K-10 agar, 10^4 CFU, 37°C, 18 hours
Protocol: as §1, §2, §3, §6
as §5, with “The tables that follow are tabulated results obtained when the B-lactams of this invention are tested against various organisms. The number” for “The number”

Proteus vulgaris, 9416 = details: K-10 agar, 10^4 CFU, 37°C, 18 hours, read-out: M.I.C.
Protocol: as §1, §2, §3, §6
as §5, with “The tables that follow are tabulated results obtained when the B-lactams of this invention are tested against various organisms. The number” for “The number”

[5] = tested on: Serratia marcescens, 9783; details: Serratia marcescens, 9783, 18 h, K-10 agar, 10^4 CFU, 37°C, read-out: M.I.C.
Protocol: as §1, §2, §3, §6
as §5, with “The tables that follow are tabulated results obtained when the B-lactams of this invention are tested against various organisms. The number” for “The number”

[6] = tested on: Staphylococcus aureus, 1276; details: Staphylococcus aureus, 1276; K-10 agar, 10^4 CFU, 37°C, 18 hours; read-out: M.I.C.
Protocol: as §1, §2, §3, §6
as §5, with “The tables that follow are tabulated results obtained when the B-lactams of this invention are tested against various organisms. The number” for “The number”

[7] = tested on: Staphylococcus aureus, 2399; details: Staphylococcus aureus, 2399, 18 h, Staphylococcus aureus, 2399; K-10 agar, 10^4 CFU, 37°C, 18 hours; read-out: M.I.C.
Protocol: as §1, §2, §3, §6
as §5, with “The tables that follow are tabulated results obtained when the B-lactams of this invention are tested against various organisms. The number” for “The number”

Escherichia coli, 10909 = details: K-10 agar, 10^4 CFU, 37°C, 18 hours
Protocol: as §1, §2, §3, §6
as §5, with “The tables that follow are tabulated results obtained when the B-lactams of this invention are tested against various organisms. The number” for “The number”

[8] = tested on: Pseudomonas aeruginosa, 8329; details: K-10 agar, 10^4 CFU, 37°C, 18 hours, read-out: M.I.C.
Protocol: as §1, §2, §3, §6
as §5, with “The tables that follow are tabulated results obtained when the B-lactams of this invention are tested against various organisms. The number” for “The number”

[9] = tested on: Pseudomonas aeruginosa, 9545; details: Pseudomonas aeruginosa, 9545, 18 h, K-10 agar, 10^4 CFU, 37°C, read-out: M.I.C.
Protocol: as §1, §2, §3, §6
as §5, with “The tables that follow are tabulated results obtained when the B-lactams of this invention are tested against various organisms. The number” for “The number”

Shigella sonnei, 8449 = details: Shigella sonnei, 8449, 18 h, K-10 agar, 10^4 CFU, 37°C
Protocol: as §1, §2, §3, §6
as §5, with “The tables that follow are tabulated results obtained when the B-lactams of this invention are tested against various organisms. The number” for “The number”

[10] = tested on: Streptococcus faecalis, 9011; details: Enterococcus faecalis; Streptococcus faecalis, 9011; K-10 agar, 10^4 CFU, 37°C, 18 hours; read-out: M.I.C.
Protocol: as §1, §2, §3, §6
as §5, with “The tables that follow are tabulated results obtained when the B-lactams of this invention are tested against various organisms. The number” for “The number”

[11] = tested on: Klebsiella pneumoniae, 9527; details: Klebsiella pneumoniae, 9527, 18 h, K-10 agar, 10^4 CFU, 37°C, read-out: M.I.C.
Protocol: as §1, §2, §3, §6
as §5, with “The tables that follow are tabulated results obtained when the B-lactams of this invention are tested against various organisms. The number” for “The number”

Proteus mirabilis, 3855 = details: Proteus mirabilis, 3855, 18 h, K-10 agar, 10^4 CFU, 37°C, read-out: M.I.C.
Protocol: as §1, §2, §3, §6
as §5, with “The tables that follow are tabulated results obtained when the B-lactams of this invention are tested against various organisms. The number” for “The number”

Salmonella typhosa, 1195 = details: Salmonella enterica, TYPHOSA, 18 h, K-10 agar, 10^4 CFU, 37°C
Protocol: as §1, §2, §3, §6
as §5, with “The tables that follow are tabulated results obtained when the B-lactams of this invention are tested against various organisms. The number” for “The number”

Escherichia coli, 8294 = details: Escherichia coli, 8294, 18 h, K-10 agar, 10^4 CFU, 37°C
Protocol: as §1, §2, §3, §6
as §5, with “The tables that follow are tabulated results obtained when the B-lactams of this invention are tested against various organisms. The number” for “The number”

[12] = tested on: Enterobacter aerogenes, 10078; details: Klebsiella aerogenes, 10078, 18 h, Enterobacter aerogenes, 10078; K-10 agar, 10^4 CFU, 37°C, 18 hours; read-out: M.I.C.
Protocol: as §1, §2, §3, §6
as §5, with “The tables that follow are tabulated results obtained when the B-lactams of this invention are tested against various organisms. The number” for “The number”

Proteus rettgeri, 8479 = details: Providencia rettgeri, K-10 agar, 10^4 CFU, 37°C, 18 hours, read-out: M.I.C.
Protocol: as §1, §2, §3, §6
as §5, with “The tables that follow are tabulated results obtained when the B-lactams of this invention are tested against various organisms. The number” for “The number”

[13] = tested on: Staphylococcus aureus, 2400; details: Staphylococcus aureus, 2400; K-10 agar, 10^4 CFU, 37°C, 18 hours; read-out: M.I.C.
Protocol: as §1, §2, §3, §6
as §5, with “The tables that follow are tabulated results obtained when the B-lactams of this invention are tested against various organisms. The number” for “The number”

[14] = tested on: Citrobacter freundii, 9518; details: K-10 agar, 10^4 CFU, 37°C, 18 hours, read-out: M.I.C.
Protocol: as §1, §2, §3, §6
as §5, with “The tables that follow are tabulated results obtained when the B-lactams of this invention are tested against various organisms. The number” for “The number”

[15] = tested on: Klebsiella aerogenes, 10440; details: K-10 agar, 10^4 CFU, 37°C, 18 hours, read-out: M.I.C.
Protocol: as §1, §2, §3, §6
as §5, with “The tables that follow are tabulated results obtained when the B-lactams of this invention are tested against various organisms. The number” for “The number”

| Compound | MIC (Micrococcus luteus, 2495) | MIC [1] | MIC [2] | MIC (Escherichia coli, 10857) | MIC [3] | MIC [4] | MIC (Escherichia coli, 10896) | MIC (Proteus vulgaris, 9416) | MIC [5] | MIC [6] | MIC [7] | MIC (Escherichia coli, 10909) | MIC [8] | MIC [9] | MIC (Shigella sonnei, 8449) | MIC [10] | MIC [11] | MIC (Proteus mirabilis, 3855) | MIC (Salmonella typhosa, 1195) | MIC (Escherichia coli, 8294) | also measured |
| --- | --- | --- | --- | --- | --- | --- | --- | --- | --- | --- | --- | --- | --- | --- | --- | --- | --- | --- | --- | --- | --- |
| CC1C(NC(=O)OCc2ccccc2)C(=O)N1S(=O)(=O)O (racemic) [Example 1, (±―cis)-4-Methyl-2-oxo-3-[[(phenylmethoxy)carbonyl]-amino]-1-azetidinesulfonic acid, potassium salt] | > 100 µg/mL | > 100 µg/mL | 100 µg/mL | > 100 µg/mL | 100 µg/mL | > 100 µg/mL | > 100 µg/mL | > 100 µg/mL | > 100 µg/mL | 100 µg/mL | 50 µg/mL | > 100 µg/mL | > 100 µg/mL | > 100 µg/mL | > 100 µg/mL | > 100 µg/mL | > 100 µg/mL | > 100 µg/mL | > 100 µg/mL | > 100 µg/mL | MIC [12]: > 100 µg/mL; MIC (Proteus rettgeri, 8479): > 100 µg/mL; MIC [13]: 50 µg/mL; MIC [14]: > 100 µg/mL; MIC [15]: > 100 µg/mL |
| CC1C(NC(=O)Cc2ccccc2)C(=O)N1S(=O)(=O)O (racemic) [Example 4, (cis)-4-Methyl-2-oxo-3-[(phenylacetyl)amino]-1-azetidinesulfonic acid, potassium salt] | 50 µg/mL | > 100 µg/mL | 12.5 µg/mL | 50 µg/mL | 100 µg/mL | > 100 µg/mL | 100 µg/mL | > 100 µg/mL | > 100 µg/mL | 25 µg/mL | 25 µg/mL | 50 µg/mL | > 100 µg/mL | > 100 µg/mL | 100 µg/mL | > 100 µg/mL | 100 µg/mL | > 100 µg/mL | 100 µg/mL | 100 µg/mL | MIC [12]: > 100 µg/mL; MIC (Proteus rettgeri, 8479): 100 µg/mL; MIC [13]: 50 µg/mL; MIC [14]: > 100 µg/mL; MIC [15]: > 100 µg/mL |
| CON=C(C(=O)NC1C(=O)N(S(=O)(=O)O)C1C)c1csc(N)n1 (racemic) [Example 7, [3α(Z),4α]-3-[[(2-Amino-4-thiazolyl) (methoxy-imino)acetyl]amino]-4-methyl-2-oxo-l-azetidinesulfonic acid, potassium salt] | 6.3 µg/mL | 0.2 µg/mL | 3.1 µg/mL | < 0.05 µg/mL | > 100 µg/mL | 50 µg/mL | 0.2 µg/mL | < 0.05 µg/mL | 0.4 µg/mL | 100 µg/mL | 100 µg/mL | 0.1 µg/mL | > 100 µg/mL | 0.8 µg/mL | 0.2 µg/mL | > 100 µg/mL | 0.1 µg/mL | < 0.05 µg/mL | < 0.05 µg/mL | 0.2 µg/mL | MIC [12]: 0.4 µg/mL; MIC (Proteus rettgeri, 8479): < 0.05 µg/mL; MIC [13]: 50 µg/mL; MIC [14]: 0.2 µg/mL; MIC [15]: 0.4 µg/mL |
